According to patent publication US20030212034A1, “Method of treatment of obesity and paralyzed muscle and ergogenic aids” (priority 2002, published 2003):

System: GLUT4
Assay: Muscle GLUT4 by western blot after chronic AICAR injection
Type: in vivo, rat
Conditions: AICAR 1 mg/g 4 weeks, FIG. 5
Protocol: To determine the effect of chronic injection of AICAR on muscle enyzme activities or expression and on muscle GLUT4, rats were injected subcutaneously (between 8 and 10 a.m.) with AICAR (1 mg/g) or saline vehicle daily for 28±1 days in succession. Beginning with the first injection, controls were pair fed with AICAR-injected rats. Rats were anesthetized by intraperitoneal injection of pentobarbital sodium 22-25 hours after the last AICAR injection and the white and red regions of the quadriceps and the soleus muscles were removed and frozen as described above. Muscles were kept frozen at −70° C. until analyzed. Liver, heart, kidney, and fat pads were weighed.
For the chronic effects of AICAR injection muscles were analyzed for glycogen GLUT-4, hexokinase, lactate dehydrogenase, and several mitochondrial enzymes. Hassid, W. Z., & S. Abraham Methods Enzymol. 3:35-36, 1957. GLUT4 was quantitated by western blotting as described previously using GLUT4 polyclonal antibody RaIRGT, Biogenesis, Sandown, N.H.) and horseradish peroxidase-conjugated donkey anti-rabbit IgG (Amersham Life Science, Arlington Heights, Ill.). Holmes, B. F., et al. J. Appl Physiol 87:1990-1995, 1999. δ-Aminolevulinic acid synthase was determined using western blotting techniques as described previously. Li, B., et al. J. Biol. Chem. 274:17534-17540, 1999. For determination of cytochrome c, muscles were homogenized in 10 mM n-2-hydroxyethylpiperazine-N′-2-ethanesulfonic acid (HEPES), 1 mM EDTA, and 250 mM sucrose (HES buffer). […] Cytochrome c was detected by incubating the nitrocellulose blots with a rabbit polyclonal antibody against rabbit heart cytochrome c (Alpha Diagnostics International, San Antonio) followed by horseradish peroxidase-conjugated anti-rabbit immunoglobulin G. Antibody bound GLUT4, δ-Aminolevulinic acid synthase, and cytochrome c were visualized using enhanced chemiluminescence. Protein bands were quantified by densitometry.

Structure (SMILES): NC(=O)c1ncn([C@@H]2O[C@H](CO)[C@@H](O)[C@H]2O)c1N [AICAR, 5-aminoimidazole-4-carboxamide-1-β-D-ribofuranoside]
- GLUT4 vs saline-injected controls (red region of the quadriceps): significantly increased
- GLUT4 vs saline-injected controls (soleus, p=0.12): did not reach statistical significance
- GLUT4 vs saline-injected controls (white region of the quadriceps): significantly increased
